Measured values reported in ChEMBL document CHEMBL4619703, “Synthesis, G-Quadruplex DNA binding and cytotoxic properties of naphthalimide substituted styryl dyes” (Bioorg Med Chem, 2020).
Active and inactive are the calls of the source. The rule behind the calls is not given here.

Tests used:
MDA-MB-231 = assay: Antiproliferative activity against human MDA-MB-231 cells assessed as reduction in cell viability after 72 hrs by CCK8 assay; type: functional
HeLa = assay: Antiproliferative activity against human HeLa cells assessed as reduction in cell viability after 72 hrs by CCK8 assay; type: functional
HCT-116 = assay: Antiproliferative activity against human HCT116 cells assessed as reduction in cell viability after 72 hrs by CCK8 assay; type: functional
HEK-293T = assay: Cytotoxicity against human 293T cells assessed as reduction in cell viability after 72 hrs by CCK8 assay; type: cell-based
Quadruplex DNA [1] = assay: Binding affinity to human CM22 G-quadruplex DNA at 2 uM incubated for 2 mins by UV- vis spectrophotometric analysis; type: nucleic-acid assay
[2] = system: Poly(dG-dC)oligonucleotide; assay: Binding affinity to poly (G-C)7 DNA assessed as fluorescence intensity at 2 uM by fluorescence spectra analysis; type: nucleic-acid assay
Quadruplex DNA [3] = assay: Binding affinity to human Pu27 G-quadruplex DNA at 2 uM incubated for 2 mins by UV- vis spectrophotometric analysis; type: nucleic-acid assay
Quadruplex DNA [4] = assay: Binding affinity to human 22AG G-quadruplex DNA at 2 uM incubated for 2 mins by UV- vis spectrophotometric analysis; type: nucleic-acid assay
Calf thymus DNA [5] = assay: Binding affinity to calf thymus DNA assessed as fluorescence intensity at 2 uM by fluorescence spectra analysis; type: nucleic-acid assay; conditions: Bos taurus
Quadruplex DNA [6] = assay: Binding affinity to human c-Myc G-quadruplex DNA at 2 uM incubated for 2 mins by UV- vis spectrophotometric analysis; type: nucleic-acid assay
Quadruplex DNA [7] = assay: Binding affinity to human Htg-21 G-quadruplex DNA assessed as fluorescence intensity at 2 uM by fluorescence spectra analysis; type: nucleic-acid assay
ssDNA = assay: Binding affinity to SS26 DNA (unknown origin) assessed as fluorescence intensity at 2 uM by fluorescence spectra analysis; type: nucleic-acid assay
Quadruplex DNA [8] = assay: Binding affinity to human Htg-21 G-quadruplex DNA at 2 uM incubated for 2 mins by UV- vis spectrophotometric analysis; type: nucleic-acid assay
Quadruplex DNA [9] = assay: Binding affinity to human c-Myc G-quadruplex DNA assessed as fluorescence intensity at 2 uM by fluorescence spectra analysis; type: nucleic-acid assay
Quadruplex DNA [10] = assay: Binding affinity to human EAD G-quadruplex DNA at 2 uM incubated for 2 mins by UV- vis spectrophotometric analysis; type: nucleic-acid assay
Quadruplex DNA [11] = assay: Binding affinity to human G3T3 G-quadruplex DNA assessed as fluorescence intensity at 2 uM by fluorescence spectra analysis; type: nucleic-acid assay
Quadruplex DNA [12] = assay: Binding affinity to human Hum24 G-quadruplex DNA at 2 uM incubated for 2 mins by UV- vis spectrophotometric analysis; type: nucleic-acid assay
Quadruplex DNA [13] = assay: Binding affinity of human G3T3 G-quadruplex DNA at 2 uM incubated for 2 mins by UV- vis spectrophotometric analysis; type: nucleic-acid assay
DNA [14] = assay: Binding affinity to ds26 DNA (unknown origin) assessed as fluorescence intensity at 2 uM by fluorescence spectra analysis; type: nucleic-acid assay
Quadruplex DNA [15] = assay: Binding affinity to human 22AG G-quadruplex DNA assessed as fluorescence intensity at 2 uM by fluorescence spectra analysis; type: nucleic-acid assay
Quadruplex DNA [16] = assay: Binding affinity to human EAD G-quadruplex DNA assessed as fluorescence intensity at 2 uM by fluorescence spectra analysis; type: nucleic-acid assay
Quadruplex DNA [17] = assay: Binding affinity to human CM22 G-quadruplex DNA assessed as fluorescence intensity at 2 uM by fluorescence spectra analysis; type: nucleic-acid assay
Quadruplex DNA [18] = assay: Binding affinity to human Pu27 G-quadruplex DNA assessed as fluorescence intensity at 2 uM by fluorescence spectra analysis; type: nucleic-acid assay
Quadruplex DNA [19] = assay: Binding affinity to human Hum24 G-quadruplex DNA assessed as fluorescence intensity at 2 uM by fluorescence spectra analysis; type: nucleic-acid assay
[20] = biological target: Poly(dG-dC)oligonucleotide; assay: Displacement of TO from Polyd(G-C)7 DNA at pH 7.4 by spectrofluorophotometric FID assay; type: nucleic-acid assay
Quadruplex DNA [21] = assay: Binding affinity to human 22AG G-quadruplex DNA by spectrofluorophotometric method; type: nucleic-acid assay
Quadruplex DNA [22] = assay: Binding affinity to human CM22 G-quadruplex DNA by spectrofluorophotometric method; type: nucleic-acid assay
Quadruplex DNA [23] = assay: Binding affinity to human G-Quadruplex DNA assessed as aggregation at 10 uM by TEM analysis; type: nucleic-acid assay
Quadruplex DNA [24] = assay: Binding affinity to human 22AG G-quadruplex DNA assessed as inhibition of G4/hemin peroxidase at 1 to 5 uM preincubated for 1 hr followed by hemin addition and further incubated for 1 hr and H2O2 addition and measured after 30 mins by UV spectrophotometric method; type: nucleic-acid assay
Quadruplex DNA [25] = assay: Binding affinity to G-Quadruplex DNA in human HeLa cells assessed as red fluorescence emission in nucleus at 20 uM after 30 min by DAPI staining based confocal microscopic method; type: cell-based
Quadruplex DNA [26] = assay: Displacement of TO from human Hum 24 G-quadruplex DNA at pH 7.4 by spectrofluorophotometric FID assay; type: nucleic-acid assay
Quadruplex DNA [27] = assay: Displacement of TO from human Pu 27 G-quadruplex DNA at pH 7.4 by spectrofluorophotometric FID assay; type: nucleic-acid assay
Quadruplex DNA [28] = assay: Binding affinity to human Hum24 G-quadruplex DNA assessed as inhibition of G4/hemin peroxidase at 1 to 5 uM preincubated for 1 hr followed by hemin addition and further incubated for 1 hr and H2O2 addition and measured after 30 mins by UV spectrophotometric method; type: nucleic-acid assay
DNA [29] = assay: Displacement of TO from ds26 DNA (unknown origin) at pH 7.4 by spectrofluorophotometric FID assay; type: nucleic-acid assay
Quadruplex DNA [30] = assay: Displacement of TO from human Htg 21 G-quadruplex DNA at pH 7.4 by spectrofluorophotometric FID assay; type: nucleic-acid assay
Calf thymus DNA [31] = assay: Displacement of TO from calf thymus DNA at pH 7.4 by spectrofluorophotometric FID assay; type: nucleic-acid assay, Bos taurus
Quadruplex DNA [32] = assay: Displacement of TO from human c-Myc G-quadruplex DNA at pH 7.4 by spectrofluorophotometric FID assay; type: nucleic-acid assay
Quadruplex DNA [33] = assay: Displacement of TO from human CM22 G-quadruplex DNA at pH 7.4 by spectrofluorophotometric FID assay; type: nucleic-acid assay
Quadruplex DNA [34] = assay: Displacement of TO from human 22AG G-quadruplex DNA at pH 7.4 by spectrofluorophotometric based FID assay; type: nucleic-acid assay
Quadruplex DNA [35] = assay: Binding affinity to human c-Myc G-quadruplex DNA assessed as inhibition of G4/hemin peroxidase at 1 to 5 uM preincubated for 1 hr followed by hemin addition and further incubated for 1 hr and H2O2 addition and measured after 30 mins by UV spectrophotometric method; type: nucleic-acid assay
Quadruplex DNA [36] = assay: Displacement of TO from human G3T3 G-quadruplex DNA at pH 7.4 by spectrofluorophotometric FID assay; type: nucleic-acid assay
Quadruplex DNA [37] = assay: Displacement of TO from human EAD G-quadruplex DNA at pH 7.4 by spectrofluorophotometric FID assay; type: nucleic-acid assay

Question: How did the Activity (MDA-MB-231) turn out when `O=c1[nH]cc(F)c(=O)[nH]1` [FLUOROURACIL] was run?
Answer: 0.8615 µM

Question: And the Activity (HeLa)?
Answer: 0.8046 µM

Question: And the Activity (HCT-116)?
Answer: 1.123 µM

Question: And the Activity (HEK-293T)?
Answer: 0.5879 µM

Question: With `C[n+]1ccccc1/C=C/c1ccc(N2CCN(CCCN3C(=O)c4cccc5cccc(c45)C3=O)CC2)cc1.[I-]` as the compound, how does the Activity (Quadruplex DNA [1]) read?
Answer: inactive

Question: And the fold change (FC) [2]?
Answer: 50 to 300

Question: What about the Activity (MDA-MB-231) of the same compound?
Answer: 0.1014 µM

Question: And the Activity (HeLa)?
Answer: 0.1913 µM

Question: And the Activity (Quadruplex DNA [3])?
Answer: inactive

Question: And the Activity (Quadruplex DNA [4])?
Answer: inactive

Question: And the fold change (FC) (Calf thymus DNA [5])?
Answer: 50 to 300

Question: And the Activity (Quadruplex DNA [6])?
Answer: inactive

Question: What about the Activity (HCT-116) of the same compound?
Answer: 0.5566 µM

Question: What about the fold change (FC) (Quadruplex DNA [7]) of the same compound?
Answer: 700 to 1800

Question: And the fold change (FC) (ssDNA)?
Answer: 50 to 300

Question: And the Activity (Quadruplex DNA [8])?
Answer: inactive

Question: And the fold change (FC) (Quadruplex DNA [9])?
Answer: 16

Question: And the Activity (Quadruplex DNA [10])?
Answer: inactive

Question: And the Activity (HEK-293T)?
Answer: 1.753 µM

Question: And the fold change (FC) (Quadruplex DNA [11])?
Answer: 700 to 1800

Question: What about the Activity (Quadruplex DNA [12]) of the same compound?
Answer: inactive

Question: And the Activity (Quadruplex DNA [13])?
Answer: inactive

Question: What about the fold change (FC) (DNA [14]) of the same compound?
Answer: 50 to 300

Question: And the fold change (FC) (Quadruplex DNA [15])?
Answer: 700 to 1800

Question: What about the fold change (FC) (Quadruplex DNA [16]) of the same compound?
Answer: 700 to 1800

Question: And the fold change (FC) (Quadruplex DNA [17])?
Answer: 700 to 1800

Question: And the fold change (FC) (Quadruplex DNA [18])?
Answer: 700 to 1800

Question: What about the fold change (FC) (Quadruplex DNA [19]) of the same compound?
Answer: 700 to 1800

Question: Which DC50 [20] does the source give for `C[n+]1c(/C=C/c2ccc(N3CCN(CCCN4C(=O)c5cccc6cccc(c56)C4=O)CC3)cc2)ccc2c3ccccc3ccc21.[I-]` here?
Answer: > 1500 nM

Question: And the Activity (Quadruplex DNA [1])?
Answer: Active

Question: What about the fold change (FC) [2] of the same compound?
Answer: 50 to 300

Question: And the Activity (MDA-MB-231)?
Answer: 0.1432 µM

Question: And the Ka (Quadruplex DNA [21])?
Answer: 0.27 ×10⁶ /M

Question: And the Activity (HeLa)?
Answer: 0.2438 µM

Question: And the Activity (Quadruplex DNA [3])?
Answer: Active

Question: And the Ka (Quadruplex DNA [22])?
Answer: 290000 M⁻¹

Question: And the Activity (Quadruplex DNA [23])?
Answer: Active

Question: What about the inhibition (Quadruplex DNA [24]) of the same compound?
Answer: Active

Question: What about the Activity (Quadruplex DNA [4]) of the same compound?
Answer: Active

Question: And the Activity (Quadruplex DNA [25])?
Answer: Active

Question: What about the fold change (FC) (Calf thymus DNA [5]) of the same compound?
Answer: 50 to 300

Question: And the Activity (Quadruplex DNA [6])?
Answer: Active

Question: And the Activity (HCT-116)?
Answer: 0.4764 µM

Question: What about the DC50 (Quadruplex DNA [26]) of the same compound?
Answer: 500 nM

Question: What about the fold change (FC) (Quadruplex DNA [7]) of the same compound?
Answer: 700 to 1800

Question: What about the fold change (FC) (ssDNA) of the same compound?
Answer: 50 to 300

Question: And the Activity (Quadruplex DNA [8])?
Answer: Active

Question: What about the DC50 (Quadruplex DNA [27]) of the same compound?
Answer: 320 nM

Question: And the inhibition (Quadruplex DNA [28])?
Answer: Active

Question: What about the fold change (FC) (Quadruplex DNA [9]) of the same compound?
Answer: 1800

Question: What about the Activity (Quadruplex DNA [10]) of the same compound?
Answer: Active

Question: And the Activity (HEK-293T)?
Answer: 0.5372 µM

Question: What about the fold change (FC) (Quadruplex DNA [11]) of the same compound?
Answer: 700 to 1800

Question: What about the DC50 (DNA [29]) of the same compound?
Answer: 980 nM

Question: And the DC50 (Quadruplex DNA [30])?
Answer: 690 nM

Question: And the DC50 (Calf thymus DNA [31])?
Answer: 850 nM

Question: And the DC50 (Quadruplex DNA [32])?
Answer: 320 nM

Question: What about the Activity (Quadruplex DNA [12]) of the same compound?
Answer: Active

Question: What about the DC50 (Quadruplex DNA [33]) of the same compound?
Answer: 390 nM

Question: And the DC50 (Quadruplex DNA [34])?
Answer: 480 nM

Question: What about the Activity (Quadruplex DNA [13]) of the same compound?
Answer: Active

Question: And the fold change (FC) (DNA [14])?
Answer: 50 to 300

Question: And the fold change (FC) (Quadruplex DNA [15])?
Answer: 700 to 1800

Question: What about the fold change (FC) (Quadruplex DNA [16]) of the same compound?
Answer: 700 to 1800

Question: What about the inhibition (Quadruplex DNA [35]) of the same compound?
Answer: Active

Question: And the fold change (FC) (Quadruplex DNA [17])?
Answer: 700 to 1800

Question: And the fold change (FC) (Quadruplex DNA [18])?
Answer: 700 to 1800

Question: And the fold change (FC) (Quadruplex DNA [19])?
Answer: 700 to 1800

Question: What about the DC50 (Quadruplex DNA [36]) of the same compound?
Answer: 410 nM

Question: And the DC50 (Quadruplex DNA [37])?
Answer: 350 nM
